In patent US20260007756A1, “COMPOUND AND USE THEREOF” (COHERENT BIOPHARMA (SUZHOU) LIMITED, priority 2022, published 2026):

Test system: human prostate cancer 22Rv-1 cell subcutaneous xenograft
Experiment: Pharmacodynamic assessment, 22Rv-1 xenograft model (Example 17)
Format: in vivo, BALB/c nude male mouse
Settings: for Safety: 2.87 / 2.88 mg/kg i.v biw×3w
Description: Objective: Pre-clinical anti-tumor effect assessment of CR202 series of compounds in BALB/c nude male mouse model with human prostate cancer 22Rv-1 cell subcutaneous xenograft.
Procedures: 22Rv-1 (CL-00458) cells were cultured in a PRMI1640 medium containing 10% fetal bovine serum. The 22Rv-1 cells in the exponential phase were collected and resuspended in PBS to an appropriate concentration for subcutaneous tumor grafting in nude mice. The mice were subcutaneously grafted at the right back with 1×10^7 22Rv-1 cells, which were resuspended in a mixture of PBS and matrigel (1:1, 0.1 mL/mouse). The growth of the tumors was observed periodically. When the mean volume of the tumors reached 100-150 mm^3, the mice were randomized according to the tumor size. After the administration, the routine monitoring included the effect on tumor growth and the effect of treatment on the normal behavior of the animals, specifically the activity, food and water intake, weight gain or loss, the eyes, the hair, and other abnormal conditions. Clinical symptoms observed during the study were recorded in the raw data. After the administration was started, the body weight and tumor size of the mice were measured periodically. The tumor volume was calculated using the following formula: V=1/2×(a×b^2), where a and b denote the long diameter and short diameter of the tumor, respectively.

[1] = 2.88 mg/kg i.v BIW×3, day 29 after grouping

With `CCCOCCOCCOCCO[Si](Oc1ccc(COC(=O)N(CCOCCC#Cc2cccc3c2CN(C2CCC(=O)NC2=O)C3=O)[C@H]2CC[C@@H](n3cc(-c4ccc(Cc5ncc6c(n5)N(C5CCCC5)[C@H](CC)C(=O)N6C)c(OC)c4)nn3)CC2)cc1)(C(C)C)C(C)C` (stereo partly shown) [CR202HT] as the molecule, how does the Mean tumor volume [1] read?
The Mean tumor volume was 690.37 mm^3.

And the TGI [1]?
Its TGI is 58.19%.

And the “Safety” value?
Its value is “good safety”.

Which “Safety” value does the source give for `CC[C@@H]1C(=O)N(C)c2cnc(Nc3ccc(-c4cn([C@H]5CC[C@@H](N(CCOCCC#Cc6cccc7c6CN(C6CCC(=O)NC6=O)C7=O)C(=O)OCc6ccc(OP(=O)(O)O)c(C(=O)NCCOCCOCCOCCn7cc(C[C@H](NC(=O)[C@H](CCCCN)NC(=O)[C@H](CC(=O)O)NC(=O)[C@H](CC(=O)O)NC(=O)Cc8ccc(CNC(=O)NCCCC[C@H](NC(=O)N[C@@H](CCC(=O)O)C(=O)O)C(=O)O)cc8)C(=O)N[C@@H](CCCCNC(=O)CC[C@H](NC(=O)c8ccc(NCc9cnc%10[nH]c(N)nc(=O)c%10n9)cc8)C(=O)O)C(N)=O)nn7)c6)CC5)nn4)cc3OC)nc2N1C1CCCC1` (stereo partly shown) [CR202LB] here?
Its value is “good safety”.
